Experimental data published in ChEMBL document CHEMBL1201862, “PubChem BioAssay data set” (2004).
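Tested at 5 concentrations; 48 h exposure; 96-well plates; endpoints linearly interpolated, else capped at highest concentration. At the GI50, growth is halved.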 Calls of active or inactive are those of the source. Cut-off read from the data, not from the text of the source: active = GI50 up to about 1.1 µM and inactive = higher.

Key:
Experiment in all cases: NCI-60 cell line screen, 48 h
[1] = test system: 786-0
[2] = test system: A549
[3] = test system: ACHN
[4] = test system: BT-549
[5] = test system: CAKI-1
[6] = test system: CCRF-CEM
[7] = test system: COLO 205
[8] = test system: EKVX
[9] = test system: HCC 2998
[10] = test system: HCT-116
[11] = test system: HCT-15
[12] = test system: HL-60
[13] = test system: HOP-62
[14] = test system: HOP-92
[15] = test system: HT-29
[16] = test system: Hs-578T
[17] = test system: IGROV-1
[18] = test system: K562
[19] = test system: KM12
[20] = test system: M14
[21] = test system: MCF7
[22] = test system: MDA-MB-231
[23] = test system: MDA-MB-435
[24] = test system: MOLT-4
[25] = test system: Malme-3M
[26] = test system: NCI-H226
[27] = test system: NCI-H23
[28] = test system: NCI-H460
[29] = test system: NCI-H522
[30] = test system: NCI/ADR-RES
[31] = test system: OVCAR-3
[32] = test system: OVCAR-4
[33] = test system: OVCAR-5
[34] = test system: OVCAR-8
[35] = test system: PC-3
[36] = test system: RPMI-8226
[37] = test system: RXF 393
[38] = test system: SF-268
[39] = test system: SF-295
[40] = test system: SF-539
[41] = test system: SK-MEL-28
[42] = test system: SK-MEL-2
[43] = test system: SK-MEL-5
[44] = test system: SK-OV-3
[45] = test system: SNB-19
[46] = test system: SR
[47] = test system: SW-620
[48] = test system: TK-10
[49] = test system: U-251
[50] = test system: UACC-257
[51] = test system: UACC-62
[52] = test system: UO-31

## CCOc1ccc(/N=N/c2ccc(-c3ccc(/N=N/c4c(O)ccc5cc(S(=O)(=O)O)cc(S(=O)(=O)O)c45)cc3)cc2)cc1
[1]
  GI50: > 100 µM (inactive)
[2]
  GI50: > 100 µM (inactive)
[3]
  GI50: > 100 µM (inactive)
[4]
  GI50: > 100 µM (inactive)
[5]
  GI50: > 100 µM (inactive)
[6]
  GI50: > 100 µM (inactive)
[7]
  GI50: > 100 µM (inactive)
[8]
  GI50: > 100 µM (inactive)
[9]
  GI50: > 100 µM (inactive)
[10]
  GI50: > 100 µM (inactive)
[11]
  GI50: 86.5 µM
[12]
  GI50: > 100 µM (inactive)
[13]
  GI50: > 100 µM (inactive)
[14]
  GI50: > 100 µM (inactive)
[15]
  GI50: > 100 µM (inactive)
[16]
  GI50: > 100 µM (inactive)
[17]
  GI50: > 100 µM (inactive)
[18]
  GI50: > 100 µM (inactive)
[19]
  GI50: > 100 µM (inactive)
[20]
  GI50: > 100 µM (inactive)
[21]
  GI50: > 100 µM (inactive)
[22]
  GI50: > 100 µM (inactive)
[23]
  GI50: > 100 µM (inactive)
[24]
  GI50: > 100 µM (inactive)
[25]
  GI50: 18.5 µM (inactive)
[26]
  GI50: > 100 µM (inactive)
[27]
  GI50: > 100 µM (inactive)
[28]
  GI50: > 100 µM (inactive)
[29]
  GI50: 63.2 µM (inactive)
[30]
  GI50: > 100 µM (inactive)
[31]
  GI50: > 100 µM (inactive)
[32]
  GI50: > 100 µM (inactive)
[33]
  GI50: > 100 µM (inactive)
[34]
  GI50: > 100 µM (inactive)
[35]
  GI50: > 100 µM (inactive)
[36]
  GI50: > 100 µM (inactive)
[37]
  GI50: > 100 µM (inactive)
[38]
  GI50: > 100 µM (inactive)
[39]
  GI50: > 100 µM (inactive)
[40]
  GI50: > 100 µM (inactive)
[41]
  GI50: > 100 µM (inactive)
[42]
  GI50: > 100 µM (inactive)
[43]
  GI50: > 100 µM (inactive)
[44]
  GI50: > 100 µM (inactive)
[45]
  GI50: > 100 µM (inactive)
[46]
  GI50: 66.2 µM (inactive)
[47]
  GI50: > 100 µM (inactive)
[48]
  GI50: > 100 µM (inactive)
[49]
  GI50: > 100 µM (inactive)
[50]
  GI50: > 100 µM (inactive)
[51]
  GI50: > 100 µM (inactive)
[52]
  GI50: > 100 µM (inactive)
